# Patent publication US20210106566A1, “PHARMACEUTICAL COMPOSITION FOR TREATING AND/OR PREVENTING PERIPHERAL NEUROPATHY OR SPINAL CORD INJURY” (NATIONAL UNIVERSITY CORPORATION NAGOYA UNIVERSITY, priority 2015, published 2021)
# Columns and labels:
# [1] = tested on: primary motor neurons; assay: MTS assay of cell survival under oxidative stress (hydrogen peroxide); assay type: cell-based, mouse; details: zonisamide 1 hour before 100 μmol/L hydrogen peroxide for 24 hours; dose-dependent
# Method: Cell survival rate was assessed by MTS assay (CellTiter 96 Aqueous One Solution Cell Proliferation Assay, Promega), which measured the activity of mitochondrial reductase. Primary cultured motor neurons were cultured in Sumilon neuron culture medium for 24 hours, and the medium was then exchanged to DMEM/F12 supplemented with 0.5% FBS and cultured for 24 hours. Zonisamide was added at various concentrations for 1 hour and 100 μmol/L hydrogen peroxide was then added for 24 hours. The cells were incubated with MTS reagent for 2 hours. MTS signal was quantified on a microplate reader (PowerScan HT, DS PharmaBiomedical). The group of cells treated without hydrogen peroxide was used as a control for evaluating MTS signal.
# [2] = tested on: mouse sciatic nerve autologous transplantation model; assay: Mouse sciatic nerve autologous transplantation model: tibialis anterior muscle cross sections; assay type: in vivo; details: 30 mg/kg/day, 8 weeks after surgery
# Description: Adult male C57BL/6J mice (8 weeks old; 19.5-22.0 g) were purchased from Charles River. The mice were anesthetized with isoflurane and underwent gluteal muscle incision under a sterile condition to expose the sciatic nerve in the left leg. The sciatic nerve was cut at the following two sites (1) and (2): (1) the site 3 mm distal to the first bifurcation of biceps femoris (hereinafter referred to as proximal transection site) (2) the site 3 mm distal to the proximal transection site (hereinafter referred to as distal transection site) The excised nerve segment with a length of 3 mm was confirmed to be completely cut at the two sites. The perineurium was sutured with nylon thread (10-0 black) at the proximal transection site and the distal transection site under a microscope. The remaining thread was used as a marker for finding the nerve transection site in the sacrifice of the mice. In order to reduce DMSO toxicity, a solution of 60 mg/mL zonisamide in 100% DMSO was prepared and the solution was diluted in olive oil to give a solution of 3 mg/mL zonisamide in 5% DMSO. […] Myelin sheath formation in the sciatic nerve was analyzed in six mice in each group. […] The number and area of myelinated axons in the sciatic nerve were manually measured using ImageJ software in a blinded fashion. […]
# [3] = tested on: Chrne, Colq, and Rapsn; assay: Mouse sciatic nerve autologous transplantation model: mRNA in gastrocnemius muscle; assay type: in vivo; details: 8 weeks after surgery, 30 mg/kg/day
# Description: Adult male C57BL/6J mice (8 weeks old; 19.5-22.0 g) were purchased from Charles River. The mice were anesthetized with isoflurane and underwent gluteal muscle incision under a sterile condition to expose the sciatic nerve in the left leg. The sciatic nerve was cut at the following two sites (1) and (2): (1) the site 3 mm distal to the first bifurcation of biceps femoris (hereinafter referred to as proximal transection site) (2) the site 3 mm distal to the proximal transection site (hereinafter referred to as distal transection site) The excised nerve segment with a length of 3 mm was confirmed to be completely cut at the two sites. The perineurium was sutured with nylon thread (10-0 black) at the proximal transection site and the distal transection site under a microscope. The remaining thread was used as a marker for finding the nerve transection site in the sacrifice of the mice. In order to reduce DMSO toxicity, a solution of 60 mg/mL zonisamide in 100% DMSO was prepared and the solution was diluted in olive oil to give a solution of 3 mg/mL zonisamide in 5% DMSO. The control solution (5% DMSO) or zonisamide (3 mg/mL×about 0.2 mL) at 30 mg/kg/day was administered to the stomach using a disposable probe needle (flexible type, Fuchigami) once a day for 1 to 8 weeks from the end of surgery until sacrifice. Myelin sheath formation in the sciatic nerve was analyzed in six mice in each group. One week after the sciatic nerve autologous transplantation, the sciatic nerve was transected at “the proximal transection site” and “the site 3 mm distal to the distal transection site” to excise a nerve segment with a length of 6 mm. […] The number and area of myelinated axons in the sciatic nerve were manually measured using ImageJ software in a blinded fashion. […] The mRNA expression levels of Bdnf, Ngf, Ntf4, Ntrk1, Ntrk2, Map2, Mapt, Gap43, Chrne, Colq, and Rapsn were quantified in a manner similar to Example 5.
# [4] = tested on: Bdnf, Ngf, Ntf4, Ntrk1, Ntrk2, Map2, Mapt, Gap43; assay: Mouse sciatic nerve autologous transplantation model: mRNA in sciatic nerve segment; assay type: in vivo; details: sciatic nerve segment distal to the distal transection site, 8 weeks after surgery
# Description: Adult male C57BL/6J mice (8 weeks old; 19.5-22.0 g) were purchased from Charles River. The mice were anesthetized with isoflurane and underwent gluteal muscle incision under a sterile condition to expose the sciatic nerve in the left leg. The sciatic nerve was cut at the following two sites (1) and (2): (1) the site 3 mm distal to the first bifurcation of biceps femoris (hereinafter referred to as proximal transection site) (2) the site 3 mm distal to the proximal transection site (hereinafter referred to as distal transection site) The excised nerve segment with a length of 3 mm was confirmed to be completely cut at the two sites. The perineurium was sutured with nylon thread (10-0 black) at the proximal transection site and the distal transection site under a microscope. The remaining thread was used as a marker for finding the nerve transection site in the sacrifice of the mice. In order to reduce DMSO toxicity, a solution of 60 mg/mL zonisamide in 100% DMSO was prepared and the solution was diluted in olive oil to give a solution of 3 mg/mL zonisamide in 5% DMSO. The control solution (5% DMSO) or zonisamide (3 mg/mL×about 0.2 mL) at 30 mg/kg/day was administered to the stomach using a disposable probe needle (flexible type, Fuchigami) once a day for 1 to 8 weeks from the end of surgery until sacrifice. Myelin sheath formation in the sciatic nerve was analyzed in six mice in each group. One week after the sciatic nerve autologous transplantation, the sciatic nerve was transected at “the proximal transection site” and “the site 3 mm distal to the distal transection site” to excise a nerve segment with a length of 6 mm. Subsequently, the nerve segment was fixed in 2% paraformaldehyde/2.5% glutaraldehyde in 0.2 mol/L sodium cacodylate buffer pH 7.3 overnight, treated with 2% osmium tetroxide for 3 hours, and dehydrated in ethanol. After epon embedding, a semithin section (with a thickness of 1 μm) was cut at the position 0.7 mm distal to the distal transection site, stained with alkaline Toluidine blue (Sigma), and examined under a microscope (FSX100, Olympus). The number and area of myelinated axons in the sciatic nerve were manually measured using ImageJ software in a blinded fashion. Eight weeks after sciatic nerve autologous transplantation, the entire gastrocnemius muscle and a sciatic nerve segment between the distal transection site and the site 3 mm distal to the distal transection site were isolated for total RNA extraction. Similar sciatic nerve segment was also isolated from the hindlimb without transected sciatic nerve. The mRNA expression levels of Bdnf, Ngf, Ntf4, Ntrk1, Ntrk2, Map2, Mapt, Gap43, Chrne, Colq, and Rapsn were quantified in a manner similar to Example 5.
structure (smiles),measurement,setting,value
"NS(=O)(=O)Cc1noc2ccccc12 [Zonisamide, 3-sulfamoylmethyl-1,2-benzisoxazole]",number of living cells (MTS signal),[1],significantly increased
same,denervation atrophy of tibialis anterior muscle (cross-sectional area of muscle fibers),[2],promoted recovery from denervation atrophy
same,expression level of Chrne,[3],increased
same,expression level of Colq,[3],increased
same,expression level of Rapsn,[3],increased
same,expression level of Bdnf,[4],unchanged
same,gene expression level of Ngf,[4],increased
same,gene expression level of Ntf4,[4],increased
same,mRNA level of Gap43,[4],elevated
same,mRNA level of Map2,[4],elevated
same,mRNA level of Mapt,[4],elevated
same,mRNA level of Ntrk1,[4],increased
same,mRNA level of Ntrk2,[4],increased
